Laboratory results taken from patent US20080108697A1, “Device for packaging an oxaliplatin solution” (priority 2001, published 2008).

Key:
[1] = Stability of aqueous oxaliplatin preparations in type I glass bottles under normal conditions (25° C., 60% relative humidity), total impurities by HPLC; type: physicochemical; conditions: for Level of impurity 5 years: 2 mg/ml, 50 ml bottle (ratio 0.12); for Level of impurity 5 years / Level of impurity 1 month / Level of impurity 2.5 months / Level of impurity 4 months / Level of impurity 5.5 months / Level of impurity 7 months / Level of impurity 10 months: 25° C./60% RH
Description: To carry out this trial, four series of bottles, consisting of a colorless type I glass, all of cylindrical shape but of different volumes, were used. Table 2 assembles, for each series of bottles, their so-called “useful” capacity, their so-called “brim” capacity, the inner diameter of these bottles, that of their neck and their height.
These bottles, used for the first time, were subjected beforehand to three cycles of washing and rinsing with hot water heated to about 50° C. and water of so-called PI grade before being dried.
Three oxaliplatin stock solutions at concentrations of 2 mg/ml, 5 mg/ml and 7 mg/ml, respectively, were prepared in the usual manner using PI grade water as solvent. No particular stabilizing agent was used.
Aliquots of these preparations were collected and then transferred under aseptic filling conditions into different bottles so as to reach the respective level corresponding to the heights indicated below. The bottles were then hermetically closed by seaming a cap.
For studies of stability under normal conditions, a first portion of these bottles were then placed in a first chamber thermostated at a temperature of 25° C. and at a relative humidity of 60%. These bottles were maintained upright and at rest without particular stirring for the periods indicated below.
Samples were collected at the periods indicated and then analyzed by high-performance liquid chromatography according to a conventional method in order to quantify the level of noncharacterized total impurities, expressed as a percentage by weight, relative to the quantities of oxaliplatin present in each of the samples.
This study was performed on groups of bottles having a useful capacity of 5 ml, 15 ml and 20 ml, respectively, filled as described above with aliquots of a stock solution at a concentration of 5 mg/ml, and then stored under the conditions mentioned above for a period of at least 10 months.
Samples were collected at periods of 1 month, and then 2.5 months, 4 months, 5.5 months, 7 months and 10 months, respectively, after bottling.
This study was performed as above, with the difference that the bottles were loaded with aliquots of a stock solution at a concentration of 7 mg/ml and samples were collected at the same periods.
This study was performed on three batches of bottles having the same useful capacity of 50 ml, filled as described above with aliquots of the same volume of a stock solution at a concentration of 2 mg/ml, and then stored under the conditions mentioned above for a period of 5 years. At the end of this period, samples were collected for analysis.

[2] = Stability study under accelerated conditions (40° C., 75% humidity); type: physicochemical; conditions: aqueous solution in the selected bottles and filling conditions, humidity 75%
Description: Finally, it will be noted that the applicant has carried out a study of stability under accelerated conditions intended to anticipate stabilities on a scale of 3 years. To this effect, bottles were placed in a chamber thermostated at a temperature of 40° C. and in an atmosphere having a humidity of 75%. Samples were regularly collected and then analyzed.

[3] = plastic material free of PVC in direct contact; period of at least one year; cited from earlier work
[4] = 5 mg/ml, 5 ml bottle (ratio 0.26)
[5] = 5 mg/ml, 15 ml bottle (ratio 0.20)
[6] = 5 mg/ml, 20 ml bottle (ratio 0.17)
[7] = deduced from curve of FIG. 1 (4 months), c=5 mg/ml
[8] = deduced from curve of FIG. 2 (4 months), printed c=5 mg/ml

O=C1[O][Pt]2([NH][C@@H]3CCCC[C@H]3[NH]2)[O]C1=O [oxaliplatin, Oxaliplatin]
Level of impurity 5 years ([1]; batch 1): 1.47 % by weight
Level of impurity 5 years ([1]; batch 2): 1.56 % by weight
Level of impurity 5 years ([1]; batch 3): 1.55 % by weight
Level of impurity 1 month ([1]; 5 mg/ml aqueous solution, bottle useful capacity 5 ml (surface area/volume ratio 0.26)): 2.34 % by weight
Level of impurity 2.5 months [1, 4]: 2.55 % by weight
Level of impurity 4 months [1, 4]: 2.89 % by weight
Level of impurity 5.5 months [1, 4]: 2.70 % by weight
Level of impurity 7 months [1, 4]: 3.19 % by weight
Level of impurity 10 months [1, 4]: 3.64 % by weight
Level of impurity 1 month [1, 5]: 1.15 % by weight
Level of impurity 2.5 months [1, 5]: 1.16 % by weight
Level of impurity 4 months [1, 5]: 1.23 % by weight
Level of impurity 5.5 months [1, 5]: 1.50 % by weight
Level of impurity 7 months [1, 5]: 1.56 % by weight
Level of impurity 10 months [1, 5]: 1.59 % by weight
Level of impurity 1 month [1, 6]: 1.06 % by weight
Level of impurity 2.5 months [1, 6]: 1.11 % by weight
Level of impurity 4 months [1, 6]: 1.13 % by weight
Level of impurity 5.5 months [1, 6]: 1.38 % by weight
Level of impurity 7 months [1, 6]: 1.42 % by weight
Level of impurity 10 months [1, 6]: 1.45 % by weight
Level of impurity 1 month ([1]; 7 mg/ml, 5 ml bottle): 1.87 % by weight
Level of impurity 2.5 months ([1]; 7 mg/ml, 5 ml bottle): 2.09 % by weight
Level of impurity 4 months ([1]; 7 mg/ml, 5 ml bottle): 2.33 % by weight
Level of impurity 5.5 months ([1]; 7 mg/ml, 5 ml bottle): 2.56 % by weight
Level of impurity 7 months ([1]; 7 mg/ml, 5 ml bottle): 2.75 % by weight
Level of impurity 10 months ([1]; 7 mg/ml, 5 ml bottle): 2.98 % by weight
Level of impurity 1 month ([1]; 7 mg/ml, 15 ml bottle): 0.96 % by weight
Level of impurity 2.5 months ([1]; 7 mg/ml, 15 ml bottle): 1.03 % by weight
Level of impurity 4 months ([1]; 7 mg/ml, 15 ml bottle): 1.12 % by weight
Level of impurity 5.5 months ([1]; 7 mg/ml, 15 ml bottle): 1.19 % by weight
Level of impurity 7 months ([1]; 7 mg/ml, 15 ml bottle): 1.23 % by weight
Level of impurity 10 months ([1]; 7 mg/ml, 15 ml bottle): 1.30 % by weight
Level of impurity 1 month ([1]; 7 mg/ml, 20 ml bottle): 0.70 % by weight
Level of impurity 2.5 months ([1]; 7 mg/ml, 20 ml bottle): 0.81 % by weight
Level of impurity 4 months ([1]; 7 mg/ml, 20 ml bottle): 0.97 % by weight
Level of impurity 5.5 months ([1]; 7 mg/ml, 20 ml bottle): 1.04 % by weight
Level of impurity 7 months ([1]; 7 mg/ml, 20 ml bottle): 1.07 % by weight
Level of impurity 10 months ([1]; 7 mg/ml, 20 ml bottle): 1.11 % by weight
R0, theoretical maximum surface area/volume ratio for which no impurity would be quantifiable [1, 7]: 0.10
constant A of R=R0+A.c.I [1, 7]: 0.01 ml/(mg.m)
R0, theoretical maximum surface area/volume ratio for which no impurity would be quantifiable [1, 8]: 0.11
constant A of R=R0+A.c.I [1, 8]: 0.009 ml/(mg.m)
period of storage suggested by accelerated stability study [2]: at least 36 months
degradation on preservation in flexible bags for infusion [3]: no degradation
